# Measurements taken from article PMC9675574 (JCI Insight, 2022).
# Where “and” joins values, the source holds several entries; their conditions need not be identical. Equal entries are not always repeated. Where two headings read alike, the source gives them in different places.
# Tests used:
# trypsin = details: cited from earlier work
# [1] = test system: cerulein-induced pancreatitis in PRSS1^R122H mice; details: cited from earlier work
# [2] = test system: transmembrane serine protease 2; details: cited from earlier work
# T7D23A and T7K24R mice = experiment: Safety observations in treated mice; format: in vivo, mouse
# Source text: (§1) Control mice were given gavage of the vehicle solution (Captisol; see below) or regular chow.
# [3] = test system: spontaneous pancreatitis in T7D23A mice; experiment: Spontaneous pancreatitis in T7D23A mice, oral gavage; format: in vivo, mouse
# Source text: (§2) The generation and properties of the T7D23A and T7K24R mice carrying trypsinogen mutations were described recently ([29], [30]). Heterozygous T7D23A and homozygous T7K24R mice were used. Protocols for genotyping have been reported earlier ([29], [30]). C57BL/6N mice were purchased from Charles River Laboratories or produced in our breeding facility from the same stock. Both male and female mice were studied.
# as §1
# (§3) Captisol (β-cyclodextrin sulfobutyl ethers, sodium salts, lot number NC-04A-180185) was obtained from Cydex Pharmaceuticals (through Thermo Fisher Scientific) and was dissolved in sterile normal saline (3.5 g in 10 mL). […] The mixture was then compressed into pellets using the barrel of a 10 mL plastic syringe and a plunger. The prodrug-containing pellets were allowed to dry at 24°C for 2 days and stored at 4°C until use.
# [4] = humans; independent of dose, not influenced by food; cited from earlier work
# [5] = test system: cerulein-induced pancreatitis in T7K24R mice; experiment: Cerulein-induced pancreatitis in T7K24R mice; format: in vivo, mouse
# Method: Pancreatitis was induced in T7K24R mice with 8 hourly intraperitoneal injections of the secretagogue peptide cerulein used in a dose of 50 μg/kg. Cerulein (catalog number C9026, MilliporeSigma) was dissolved in sterile normal saline at 10 μg/mL concentration. Mice were sacrificed 1, 24, 48, 72, or 96 hours from the first cerulein injection, as indicated, and the pancreas and blood were harvested. Details of histological analysis and measurement of plasma amylase (4 μL assayed) were reported previously ([29]–[31]).
# as §1, §3
# [6] = Estimation of absorbed dabigatran etexilate; parameters: species or system mouse
# [7] = test system: spontaneous pancreatitis in T7D23A mice; experiment: Spontaneous pancreatitis in T7D23A mice, feeding with drug-containing chow; format: in vivo, mouse
# Source text: as §2, §1, §3
# [8] = gavage 1 × 100, 2 × 100 or 1 × 200 mg/kg daily for 2 weeks
# [9] = single oral gavage 200 mg/kg 30 minutes after last cerulein injection, 96 hours
# [10] = single oral gavage 200 mg/kg, 15 treated mice
structure (smiles),measurement,setting,value
COc1ccc(-n2nc(C(N)=O)c3c2C(=O)N(c2ccc(N4CCCCC4=O)cc2)CC3)cc1 [apixaban],trypsin-inhibitory activity,trypsin,devoid of trypsin-inhibitory activity
same,therapeutic activity,[1]; 100 mg/kg alone,no therapeutic activity whatsoever
same,therapeutic activity,[1]; apixaban 100 mg/kg combined with camostat 200 mg/kg,highly effective
CN(C)C(=O)COC(=O)Cc1ccc(OC(=O)c2ccc(NC(=N)N)cc2)cc1 [camostat],inhibition of transmembrane serine protease 2,[2],strong inhibitors
same,therapeutic activity,[1]; 200 mg/kg alone,only a partial effect
CCCCCCOC(=O)NC(=N)c1ccc(NCc2nc3cc(C(=O)N(CCC(=O)OCC)c4ccccn4)ccc3n2C)cc1 [dabigatran etexilate],effect on cerulein-induced pancreatitis,[1]; PRSS1^R122H transgenic mice,markedly improved
same,"bleeding, morbidity, mortality",T7D23A and T7K24R mice; gavage 100 or 200 mg/kg or chow 10 mg/g,"no bleeding, morbidity, or mortality were observed"
same,"hematoxylin-eosin sections of liver, intestine, and kidney",T7D23A and T7K24R mice; mice treated with dabigatran etexilate or vehicle,no signs of organ damage
same,"intact acini per visual field, treated versus untreated",[3]; [8],no appreciable difference
same,pancreas weight,[3]; [8],did not improve
same,plasma amylase levels relative to untreated T7D23A controls,[3]; [8],significantly lower
same,body weight gain,"[3]; gavage 1 × 100, 2 × 100 or 1 × 200 mg/kg daily for 2 weeks, 3 to 5 weeks of age",unaffected by gavage treatment
same,effect on spontaneous pancreatitis,[3]; intragastric gavage for 2 weeks,did not ameliorate
same,oral bioavailability,[4],around 6.5%
same,"body weight, start versus end of experiment",[5]; [9],no change in body weight
same,pancreas weight versus vehicle-treated mice with pancreatitis,[5]; [9],significantly higher
same,share of drug-treated mice with complete protective effect (histology),[5]; [10],~50%
same,share of mice with significant yet incomplete effect (30%–50% normal histology),[5]; [10],about 20%
same,plasma amylase activity in a subset of treated mice (4 of 15),"[5]; single oral gavage 200 mg/kg, 4 days after induction",more than 3 fold
same,proportion of intact acini versus vehicle-treated group,"[5]; single oral gavage 200 mg/kg, histology at 96 hours",significantly higher
same,"intact acini on pancreas sections, individual mice with elevated plasma amylase","[5]; single oral gavage 200 mg/kg, the 4 mice with elevated amylase, 200 mg/kg",45% and 13% and 15% and 35%
same,daily dose of absorbed dabigatran etexilate,"[6]; 10 mg prodrug/g chow, about 4 g chow per 24 hours, estimated",2.6 mg
same,systemically absorbed single dose,"[6]; 100 mg/kg intragastric gavage, 20 g mouse, estimated from human bioavailability",0.13 mg
same,effect on spontaneous pancreatitis,[7]; chow with 10 mg/g for 1 week,did not prevent or improve
same,"intact acini, pancreatitis severity",[7]; chow with 10 mg/g for 1 week,no effect
same,plasma amylase activities,"[7]; chow with 10 mg/g for 1 week, all 4 groups",comparable
same,"pancreas weight, treated versus untreated","[7]; chow with 10 mg/g for 1 week, both strains (C57BL/6N and T7D23A)",small increase
same,body weight gain,"[7]; chow with 10 mg/g, 21 to 28 days of age, C57BL/6N and T7D23A",gained weight similarly
N=C(N)c1ccc2cc(OC(=O)c3ccc(N=C(N)N)cc3)ccc2c1 [nafamostat],inhibition of transmembrane serine protease 2,[2],strong inhibitors
